Experiment [1] has as its target T1, amylin receptor 1 ECD with calcitonin receptor E123A mutation (Homo sapiens, UniProt O60894+P30988, E123A).
T1 construct: pHLsec/hRAMP1.24–111-(GSA)3-hCTR.34–141.E123A-H6 (D-pJJ004); H6 (hexahistidine) (C); made in house; host or cells: HEK293 (transient transfection, secreted, N-glycosylated)
As to the kind of experiment: FP saturation binding, E123A. To be noted: for Average fluorescence intensity change upon receptor ECD binding: % of a free probe intensity, Mean ± S.D., E123A, max receptor 3 μM (sCT), 1 μM (AC413); for decrease of binding affinity: E123A versus wild-type receptor ECD. An excerpt:
(§1) pHLsec-based vectors were used to express wild-type and mutated amylin receptor 1 extracellular domains as secreted proteins to cell culture media. The plasmid DNA construct of the wild-type amylin receptor 1 extracellular domain, pHLsec/hRAMP1.24–111-(GSA)3-hCTR.34–141-H6 (H-pSL005) was previously described. The following DNA vector plasmids were made for this study: pHLsec/hRAMP1.24–111-(GSA)3-hCTR.34–141.D97A-H6 (D-pSL009), pHLsec/hRAMP1.24–111-(GSA)3-hCTR.34–141.D97E-H6 (D-pJS001), pHLsec/hRAMP1.24–111-(GSA)3-hCTR.34–141.D101A-H6 (D-pJJ003), pHLsec/hRAMP1.24–111-(GSA)3-hCTR.34–141.D101E-H6 (D-pJJ002), pHLsec/hRAMP1.24–111-(GSA)3-hCTR.34–141.E123A-H6 (D-pJJ004), pHLsec/hRAMP1.24–111-(GSA)3-hCTR.34–141.E123D-H6 (D-pJJ001), pHLsec/hRAMP1.24–111-(GSA)3-hCTR.34–141.N124A-H6 (D-pJS005), pHLsec/hRAMP1.24–111-(GSA)3-hCTR.34–141.N124D-H6 (D-pJS006), pHLsec/hRAMP1.24–111-(GSA)3-hCTR.34–141.N135A-H6 (D-pJW001), and pHLsec/hRAMP1.24–111-(GSA)3-hCTR.34–141.N135D-H6 (D-pJS002). The mutations were introduced to the calcitonin receptor extracellular domain by using DNA Assembly reaction. Coding sequences of the receptor expression vectors were confirmed with Sanger sequencing by Bionics (Seoul, Republic of Korea). DNA plasmid vectors were extracted and were purified from bacterial cells with NucleoBond® Extra Midi Plus kit (Macherey-Nagel, Germany). The purified DNA vectors were stored at −20 °C until their use for mammalian cell transfection.
(§2) The overall experimental procedure of reconstituting the functional amylin receptor 1 extracellular domain (ECD) as the fusion protein of RAMP1 ECD and the calcitonin receptor ECD was previously described. The wild-type and mutated amylin receptor 1 ECDs were expressed from HEK293 cells with transient transfection with polyethylenimine. The expressed receptor proteins were secreted to cell culture media for 4 days at 37 °C. The media were collected for the receptor protein purification. Initial dialysis was performed with the dialysis buffer (Tris 25 mM (pH 7.4), NaCl 150 mM, and imidazole 10 mM) overnight. […] Then, a size exclusion column chromatography (SEC) was performed with SEC column (Cytiva, HiLoad® 16/600 Superdex® 200 pg) and SEC buffer (Tris 50 mM (pH 7.4), NaCl 150 mM, and glycerol (v/v) 10%) as previously described. As the final step, the purified receptor proteins were dialyzed to storage buffer (HEPES 25 mM (pH 7.4), NaCl 150 mM, and glycerol (v/v) 50 %) and were stored at −60 °C until their use for the receptor–ligand binding assay. […]
(§3) The overall procedure of the FP binding assay with a saturation binding format was previously described. […] FITC-labeled peptide probes were incubated for 1 h at room temperature with the purified receptor protein prior to fluorescence signal measurement. […]

The target of experiment [2] is T2, amylin receptor 1 ECD with calcitonin receptor D101A mutation (Homo sapiens, UniProt O60894+P30988, D101A).
T2 construct: pHLsec/hRAMP1.24–111-(GSA)3-hCTR.34–141.D101A-H6 (D-pJJ003); H6 (hexahistidine) (C); made in house; host or cells: HEK293 (transient transfection, secreted, N-glycosylated)
The experiment can be described thus: FP saturation binding, D101A. As to conditions: for Average fluorescence intensity change upon receptor ECD binding: % of a free probe intensity, Mean ± S.D., max receptor 1 μM; for effect of mutation on binding affinity: in words.
From the text: as §1, §2, §3

The target of experiment [3] is T3, amylin receptor 1 ECD with calcitonin receptor N124A mutation (Homo sapiens, UniProt O60894+P30988, N124A).
T3 construct: pHLsec/hRAMP1.24–111-(GSA)3-hCTR.34–141.N124A-H6 (D-pJS005); H6 (hexahistidine) (C); made in house; host or cells: HEK293 (transient transfection, secreted, N-glycosylated)
As to the kind of experiment: FP saturation binding, N124A. As to conditions: for Average fluorescence intensity change upon receptor ECD binding: % of a free probe intensity, Mean ± S.D., N124A, max receptor 1 μM; for decrease of binding affinity: N124A versus wild-type receptor ECD.
From the text: as §1, §2, §3

Experiment [4] deals with T4, amylin receptor 1 ECD with calcitonin receptor D97E mutation (Homo sapiens, UniProt O60894+P30988, D97E).
T4 construct: pHLsec/hRAMP1.24–111-(GSA)3-hCTR.34–141.D97E-H6 (D-pJS001); H6 (hexahistidine) (C); made in house; host or cells: HEK293 (transient transfection, secreted, N-glycosylated)
The experiment can be described thus: FP saturation binding, D97E. As to conditions: for Average fluorescence intensity change upon receptor ECD binding: % of a free probe intensity, Mean ± S.D., max receptor 3 μM (sCT), 1 μM (AC413); for effect of mutation on binding affinity: in words.
From the text: as §1, §2, §3

Experiment [5] addresses T5, amylin receptor 1 ECD wild-type (WT) (Homo sapiens, UniProt O60894+P30988).
T5 construct: pHLsec/hRAMP1.24–111-(GSA)3-hCTR.34–141-H6 (H-pSL005); H6 (hexahistidine) (C); made in house; host or cells: HEK293 (transient transfection, secreted, N-glycosylated)
As to the kind of experiment: FP saturation binding, FITC peptide probes, wild-type amylin receptor 1 ECD. As to conditions: for Average fluorescence intensity change upon receptor ECD binding: % of a free probe intensity, Mean ± S.D., WT, max receptor 3 μM (sCT), 1 μM (AC413).
From the text: as §1
The overall experimental procedure of reconstituting the functional amylin receptor 1 extracellular domain (ECD) as the fusion protein of RAMP1 ECD and the calcitonin receptor ECD was previously described. The wild-type and mutated amylin receptor 1 ECDs were expressed from HEK293 cells with transient transfection with polyethylenimine. […]
as §3

This note sets out measurements from paper PMC12292835, “Amylin Receptor 1 Mutagenesis Revealed a Potential Role of Calcitonin Serine 29 in Receptor Interaction” (Biomedicines, 2025).

Molecules are shown by their SMILES. Where a SMILES comes first, the peptide text is derived from it. The star is where a group is joined. FITC = O=C1OC2(c3ccc(O)cc3Oc3cc(O)ccc32)c2ccc(NC(=S)*)cc21

T2 sequence (O60894 24-111): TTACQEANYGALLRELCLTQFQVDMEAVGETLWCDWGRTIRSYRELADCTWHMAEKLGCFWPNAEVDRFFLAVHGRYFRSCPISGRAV
T2 sequence (P30988 34-141 D101A): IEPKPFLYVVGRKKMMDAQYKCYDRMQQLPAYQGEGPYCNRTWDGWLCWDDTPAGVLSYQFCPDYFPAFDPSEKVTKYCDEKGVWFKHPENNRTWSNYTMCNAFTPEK
T5 sequence (O60894 24-111): as the sequence (O60894 24-111) above
T5 sequence (P30988 34-141): as the sequence (P30988 34-141 D101A) above, with A68D counted along it
T4 sequence (O60894 24-111): as the sequence (O60894 24-111) above
T4 sequence (P30988 34-141 D97E): as the sequence (P30988 34-141 D101A) above, with D64E, A68D counted along it
T1 sequence (O60894 24-111): as the sequence (O60894 24-111) above
T1 sequence (P30988 34-141 E123A): as the sequence (P30988 34-141 D101A) above, with A68D, E90A counted along it
T3 sequence (O60894 24-111): as the sequence (O60894 24-111) above
T3 sequence (P30988 34-141 N124A): as the sequence (P30988 34-141 D101A) above, with A68D, N91A counted along it

On to `CC(C)C[C@H](NC(=O)[C@H](CCCNC(=N)N)NC(=O)[C@@H](NC(=O)[C@H](CC(C)C)NC(=O)[C@H](Cc1ccccc1)NC(=O)[C@H](CC(N)=O)NC(=O)[C@H](C)NC(=S)Nc1ccc2c(c1)C(=O)OC21c2ccc(O)cc2Oc2cc(O)ccc21)C(C)C)C(=O)N[C@@H](CCC(N)=O)C(=O)N[C@H](C(=O)N[C@@H](Cc1ccc(O)cc1)C(=O)N1CCC[C@H]1C(=O)N[C@@H](CCCNC(=N)N)C(=O)N[C@H](C(=O)N[C@@H](CC(N)=O)C(=O)N[C@H](C(=O)NCC(=O)N[C@@H](C)C(=O)N[C@@H](CC(N)=O)C(=O)N[C@H](C(=O)N1CCC[C@H]1C(N)=O)[C@@H](C)O)C(C)C)[C@@H](C)O)[C@@H](C)O` [FITC-AC413(6–25) Y25P] ({FITC}-ANFLVRLQTYPRTNVGANTP-NH2; C-terminus assumed), for which the “Average fluorescence intensity change upon receptor ECD binding” value in experiment [1] is 77 ± 13%; in experiment [2] it was 97 ± 3%; in experiment [3], 87 ± 2%; in experiment [4], 68 ± 3%; in experiment [5] it was 67 ± 8%. Besides, the entries for the “decrease of binding affinity” value in experiment [1] and in experiment [3] were 2.3 fold and 8.2 fold, respectively. Also, the “effect of mutation on binding affinity” value in experiment [2] is recorded as “markedly decreased the binding affinity”; in experiment [4] it was “not significantly changed”.

Consider `C[C@@H](O)[C@H](NC(=O)[C@H](CC(N)=O)NC(=O)[C@@H](NC(=O)[C@H](CCCNC(=N)N)NC(=O)[C@@H]1CCCN1C(=O)[C@H](Cc1ccc(O)cc1)NC(=S)Nc1ccc2c(c1)C(=O)OC21c2ccc(O)cc2Oc2cc(O)ccc21)[C@@H](C)O)C(=O)NCC(=O)N[C@@H](CO)C(=O)NCC(=O)N[C@H](C(=O)N1CCC[C@H]1C(N)=O)[C@@H](C)O` [FITC-sCT(22–32)] ({FITC}-YPRTNTGSGTP-NH2; C-terminus assumed), for which the “Average fluorescence intensity change upon receptor ECD binding” value was determined as 72 ± 1% in experiment [1]; 101 ± 4% in experiment [2]; 85 ± 11% in experiment [3]; 78 ± 4% in experiment [4]; 71 ± 4% in experiment [5]. The figures for the “decrease of binding affinity” value in experiment [1] and in experiment [3] were 4.5 fold and “more than 10 fold”, respectively. Also, the “effect of mutation on binding affinity” value is on record as “markedly decreased the binding affinity” in experiment [2] and “partially restored the decreased affinity” in experiment [4]. Besides, the “stronger affinity of FITC-labeled over non-labeled peptide” value in experiment [5] (KD 81 nM versus previously reported KI 2.5 μM of non-labeled sCT(22–32)) is on record as “more than 30 fold”.
